Here are results for 21 compounds from patent US10208030B2, “GPR119 agonist compounds” (Mankind Pharma Ltd., priority 2016, dated 2019).

SMILES strings stand for the structures.

For experiment [1], the target named is T1, hGPR119 (Homo sapiens, UniProt Q8TDV5).
T1 construct: expressed in transfected cells; host or cells: CHO cells (CHO-hGPR119)
T1 sequence (Q8TDV5 1-335): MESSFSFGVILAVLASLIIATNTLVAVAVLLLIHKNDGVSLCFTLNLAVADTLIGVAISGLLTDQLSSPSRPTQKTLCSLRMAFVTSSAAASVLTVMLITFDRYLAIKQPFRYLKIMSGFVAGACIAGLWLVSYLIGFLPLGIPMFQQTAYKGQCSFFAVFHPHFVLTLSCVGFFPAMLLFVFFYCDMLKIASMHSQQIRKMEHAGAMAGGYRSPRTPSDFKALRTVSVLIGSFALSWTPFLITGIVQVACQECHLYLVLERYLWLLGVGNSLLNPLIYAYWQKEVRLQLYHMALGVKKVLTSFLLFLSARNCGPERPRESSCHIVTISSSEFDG
Briefly: In vitro cyclic AMP assay (Cisbio HTRF) in CHO-hGPR119 cells. As to conditions: cAMP; for activation at 1 µM: 1 h, 60 min, read-out: Induction (% induction at 1 μM); for EC50: class symbols, legend not given. Format: cell-based. Summed up: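 Cells plated at 5000/well and exposed to test compound dose series for 60 min at room temperature with 1 mM IBMX and 0.5% DMSO (final). Lysis with anti-cAMP antibody/d2-cAMP detection reagents, 1 h at room temperature; HTRF read at 665/620 nm (337 nm excitation); EC50 from concentration-response.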
For orientation: TR-FRET usually uses a lanthanide donor and a delayed reading to cut background.

The test system of experiment [2] is Male C57BL/6 mice. Briefly: Oral glucose tolerance test in C57BL/6 mice. The class given is in vivo. The conditions noted are these: 3 mpk and 10 mpk oral. On the procedure:
(§1) Male C57BL/6 mice (8-10 weeks) were grouped based on basal glucose levels and animals were fasted for 16 hours. Glucose level of each animal was estimated in blood collected from tail vein before animals were dosed orally with 0.5% Tween 80 and 0.5% NaCMC (vehicle control) and compounds at 3 and 10 mpk (n=5). After 30 minutes of compound dosing, blood glucose was again estimated and 2 g/kg/10 ml (20%) of Glucose solution was administered orally to all the animals. Blood glucose was estimated at 15, 30, 60, 90 and 120 minutes time points after glucose administration. Accu-Check active blood glucose meter was utilised for estimation of blood from tail vein.
Glucose reduction observed in animals treated with compounds of present invention is represented in terms of % AUC reduction. A greater glucose reduction in oral glucose tolerance test indicates the compound's efficacy in this rodent species.

Experiment [3] deals with Male SD rats. Put plainly: Oral glucose tolerance test in Sprague-Dawley rats. The class given is in vivo. The conditions noted are these: 3 mpk and 10 mpk oral. On the procedure: as §1, with “SD rats” for “C57BL/6 mice”
Glucose reduction observed in animals treated with GPR119 agonists is represented in terms of % AUC reduction. A greater glucose reduction in oral glucose tolerance test indicates the compound's efficacy in this rodent species.

Take `CC(C)c1noc(N2CCC([C@@H](C)Oc3nn4cc(-c5ccc(S(C)(=O)=O)cc5F)nc4s3)CC2)n1` [Compound 1088, 2-((R)-1-(1-(3-isopropyl-1,2,4-oxadiazol-5-yl)piperidin-4-yl)ethoxy)-6-(2-fluoro-4-(methylsulfonyl)phenyl)imidazo[2,1-b][1,3,4]thiadiazole]: in experiment [1], the activation at 1 µM stood at 73% and the EC50 entry was “A++”. Also, in experiment [2], the “glucose reduction (% AUC reduction) in oral glucose tolerance test” value (from here on “glucose reduction (% AUC reduction)”) is “significant dose dependent glucose reduction”. For the compound `CC(C)OC(=O)N1CCC([C@H](C)Oc2nn3cc(-c4ccc(S(C)(=O)=O)cc4F)nc3s2)CC1` [Compound 1108, isopropyl 4-((S)-1-(6-(2-fluoro-4-(methylsulfonyl)phenyl)imidazo[2,1-b][1,3,4]thiadiazol-2-yloxy)ethyl)piperidine-1-carboxylate], the activation at 1 µM in experiment [1] is 70%. For the same compound, the EC50 result in experiment [1] was “A++”. The “glucose reduction (% AUC reduction)” value in experiment [2] and in experiment [3] was “significant dose dependent glucose reduction” throughout.

In the case of `CCCc1cnc(N2CCC(C(C)Oc3nn4cc(-c5ccc(S(C)(=O)=O)nc5)nc4s3)CC2)nc1` (stereo in doubt) [Compound 1081, 2-((S)-1-(1-(5-propylpyrimidin-2-yl)piperidin-4-yl)ethoxy)-6-(6-(methylsulfonyl)pyridin-3-yl)imidazo[2,1-b][1,3,4]thiadiazole], in experiment [1], the activation at 1 µM was 66% and the EC50 result was “A++”. In addition, in experiment [2], the “glucose reduction (% AUC reduction)” value was “significant dose dependent glucose reduction”.

Regarding `CC(C)c1noc(N2CCC(C(C)Oc3nn4cc(-c5ccc(S(C)(=O)=O)cc5C(F)(F)F)nc4s3)CC2)n1` (stereo not shown) [Compound 1091, 2-(1-(1-(3-isopropyl-1,2,4-oxadiazol-5-yl)piperidin-4-yl)ethoxy)-6-(2-(trifluoromethyl)-4-(methylsulfonyl)phenyl)imidazo[2,1-b][1,3,4]thiadiazole], the activation at 1 µM in experiment [1] was 33%. The “glucose reduction (% AUC reduction)” value in experiment [3] was “significant dose dependent glucose reduction”. Take `CC(C)c1noc(C2CCN(c3nn4cc(COc5ccc(S(C)(=O)=O)cc5)nc4s3)CC2)n1` [Compound 1040, 3-isopropyl-5-(1-(6-((4-(methylsulfonyl)phenoxy)methyl)imidazo[2,1-b][1,3,4]thiadiazol-2-yl)piperidin-4-yl)-1,2,4-oxadiazole]: the activation at 1 µM in experiment [1] is 4%. Same read-out and setting: the figure for `CC(C)c1noc(N2CCC(C(C)Oc3nn4c(F)c(-c5ccc(S(C)(=O)=O)cc5)nc4s3)CC2)n1` (stereo not shown) [Compound 1061, 5-(4-(1-((5-fluoro-6-(4-(methylsulfonyl)phenyl)imidazo[2,1-b][1,3,4]thiadiazol-2-yl)oxy)ethyl)piperidin-1-yl)-3-isopropyl-1,2,4-oxadiazole] is 79%. Take `CC(C)c1noc(N2CCC([C@@H](C)Oc3nn4cc(-c5ccc(S(C)(=O)=O)cc5)nc4s3)CC2)n1` [Compound 1060, (R)-3-isopropyl-5-(4-(1-((6-(4-(methylsulfonyl)phenyl)imidazo[2,1-b][1,3,4]thiadiazol-2-yl)oxy)ethyl)piperidin-1-yl)-1,2,4-oxadiazole]: in experiment [1], the activation at 1 µM worked out at 65% and the EC50 entry was “A+”. Consider `CC(C)c1noc(N2CCC(Oc3nc(-c4ccc(S(C)(=O)=O)cc4)ns3)CC2)n1` [Compound 1116, 4-(3-(4-(methylsulfonyl)phenyl)-1,2,4-thiadiazol-5-yloxy)-1-(3-isopropyl-1,2,4-oxadiazol-5-yl)piperidine], for which the activation at 1 µM in experiment [1] is 36%. On the same count and under the same terms, under `C[C@@H](Oc1nn2cc(-c3ccc(S(C)(=O)=O)cc3)nc2s1)C1CCN(c2nc(C(F)(F)F)no2)CC1` [Compound 1076, 2-((R)-1-(1-(3-(trifluoromethyl)-1,2,4-oxadiazol-5-yl)piperidin-4-yl)ethoxy)-6-(4-(methylsulfonyl)phenyl)imidazo[2,1-b][1,3,4]thiadiazole] stands 15%. The same measure, in the same setting: the figure for `CCc1cnc(N2CCC(c3nsnc3C(=O)Nc3ccc(S(C)(=O)=O)cc3F)CC2)nc1` [Compound 1015, 4-(1-(5-ethylpyrimidin-2-yl)piperidin-4-yl)-N-(2-fluoro-4-(methylsulfonyl)phenyl)-1,2,5-thiadiazole-3-carboxamide] is 3%; for `CC(C)c1noc(C2CCN(c3nsnc3Oc3ccc(-n4cnnn4)cc3)CC2)n1` [Compound 1003, 5-(1-(4-(4-(1H-tetrazol-1-yl)phenoxy)-1,2,5-thiadiazol-3-yl)piperidin-4-yl)-3-isopropyl-1,2,4-oxadiazole] it is 3%.

In the case of `CC(C)c1noc(N2CCC(Nc3nc(-c4ccc(S(C)(=O)=O)nc4)ns3)CC2)n1` [Compound 1126, 1-(3-isopropyl-1,2,4-oxadiazol-5-yl)-N-(3-(6-(methylsulfonyl)pyridin-3-yl)-1,2,4-thiadiazol-5-yl)piperidin-4-amine], in experiment [1], the activation at 1 µM amounted to 7%. On to `CC(C)c1noc(N2CCC(C(C)Oc3nn4cc(-c5ccncc5F)nc4s3)CC2)n1` (stereo in doubt) [Compound 1064, (S)-5-(4-(1-((6-(3-fluoropyridin-4-yl)imidazo[2,1-b][1,3,4]thiadiazol-2-yl)oxy)ethyl)piperidin-1-yl)-3-isopropyl-1,2,4-oxadiazole], for which, in experiment [1], the activation at 1 µM amounted to 75% and the EC50 entry is “A++”. For the compound `CC(C)c1noc(C2CCN(c3nn4cc(-c5ccc(C#N)cc5)nc4s3)CC2)n1` [Compound 1046, 4-(2-(4-(3-isopropyl-1,2,4-oxadiazol-5-yl)piperidin-1-yl)imidazo[2,1-b][1,3,4]thiadiazol-6-yl)benzonitrile], the activation at 1 µM in experiment [1] was found to be 26%. Consider `CC(C)c1noc(N2CCC([C@@H](C)Oc3nn4cc(-c5ccnc(F)c5)nc4s3)CC2)n1` [Compound 1065, (R)-5-(4-(1-((6-(2-fluoropyridin-4-yl)imidazo[2,1-b][1,3,4]thiadiazol-2-yl)oxy)ethyl)piperidin-1-yl)-3-isopropyl-1,2,4-oxadiazole], for which the activation at 1 µM in experiment [1] amounted to 62%. On the same count and under the same terms, under `CC(C)c1noc(N2CCC(C(C)Oc3nn4cc(-c5ccc(C(F)(F)F)nc5)nc4s3)CC2)n1` (stereo in doubt) [Compound 1084, 2-((S)-1-(1-(3-isopropyl-1,2,4-oxadiazol-5-yl)piperidin-4-yl)ethoxy)-6-(6-(trifluoromethyl)pyridin-3-yl)imidazo[2,1-b][1,3,4]thiadiazole] stands 72%; under `CC(C)c1noc(N2CCC(C(C)Oc3nn4cc(-c5ccc(C#N)cc5)nc4s3)CC2)n1` (stereo not shown) [Compound 1047, 4-(2-(1-(1-(3-isopropyl-1,2,4-oxadiazol-5-yl)piperidin-4-yl)ethoxy)imidazo[2,1-b][1,3,4]thiadiazol-6-yl)benzonitrile], 51%; under `CC(C)c1noc(N2CCC(C(C)Oc3nn4cc(-c5cnc(S(C)(=O)=O)nc5)nc4s3)CC2)n1` (stereo not shown) [Compound 1074, 2-(1-(1-(3-isopropyl-1,2,4-oxadiazol-5-yl)piperidin-4-yl)ethoxy)-6-(2-(methylsulfonyl)pyrimidin-5-yl)imidazo[2,1-b][1,3,4]thiadiazole], 44%. The same measure, in the same setting: under `CC(C)OC(=O)N1CCC(c2cn3nc(-c4ccc(C(=O)N(C)C)cc4)sc3n2)CC1` [Compound 1034, isopropyl 4-(2-(4-(dimethylcarbamoyl)phenyl)imidazo[2,1-b][1,3,4]thiadiazol-6-yl)piperidine-1-carboxylate] stands 53%; under `CC(C)c1noc(N2CCC(C(C)Oc3nn4cc(-c5ccncc5)nc4s3)CC2)n1` (stereo not shown) [Compound 1050, 3-isopropyl-5-(4-(1-((6-(pyridin-4-yl)imidazo[2,1-b][1,3,4]thiadiazol-2-yl)oxy)ethyl)piperidin-1-yl)-1,2,4-oxadiazole], 68%. Still for that read-out and setting: under `CC(Oc1nn2cc(-c3ccc(S(C)(=O)=O)cc3)nc2s1)C1CCN(c2nc(C(F)(F)F)no2)CC1` (stereo not shown) [Compound 1073, 2-(1-(1-(3-(trifluoromethyl)-1,2,4-oxadiazol-5-yl)piperidin-4-yl)ethoxy)-6-(4-(methylsulfonyl)phenyl)imidazo[2,1-b][1,3,4]thiadiazole] stands 33%.
